For orientation: melting point means the temperature, or range, at which the solid turns liquid.

SMILES strings stand for the structures. Read-outs that look alike come from different tables or passages of the source.

The values that follow come from PMC8621770, “New Compounds with Bioisosteric Replacement of Classic Choline Kinase Inhibitors Show Potent Antiplasmodial Activity” (Pharmaceutics, 2021).

Data set [1] addresses T1, PfCK (Plasmodium falciparum, UniProt Q8IM71).
T1 construct: A truncated form of PfCK (Δ79-440) featuring an N-terminal 6× His-tag; 6xHis (N); host or cells: Escherichia coli BL21 (DE3) Star
The data set is described as follows: Spectrophotometric coupled enzymatic assay for PfCK activity (substrate choline). Format: biochemical. The following applies: read-out: PfCK Fractional Activity at 25 µM.

In data set [2] the test system is P. falciparum strain 3D7. As to the kind of experiment: Antimalarial activity, P. falciparum lactate dehydrogenase growth inhibition assay. The data set is classed as cell-based, Plasmodium falciparum. To be noted: Plasmodium falciparum, Erythrocyte; P. falciparum 3D7 in human erythrocytes, 72 h, LDH readout; read-out: IC50 a (In vitro IC50 values against P. falciparum).

Data set [3] in a line: Aggregation of compound solutions for the enzymatic assays. To be noted: even at 5 mM concentration. The data set is classed as physicochemical. An excerpt: As a result, it was difficult to measure their exact concentration, which is crucial for enzymatic assays.
The subject of data set [4] is P. falciparum strain 3D7. Set-up: method as in PMID 27616047, PMID 29880399, PMID 25089811. To be noted: reference compounds; read-out: IC50 a (In vitro IC50 values against P. falciparum); cited from earlier work.
Data set [5] addresses T1, PfCK. The following applies: reference compounds, cited from earlier work; for inhibition of PfCK depending on substrate (in words): choline kinase or ethanolamine kinase activity.

T1 sequence (Q8IM71 entry or part of it): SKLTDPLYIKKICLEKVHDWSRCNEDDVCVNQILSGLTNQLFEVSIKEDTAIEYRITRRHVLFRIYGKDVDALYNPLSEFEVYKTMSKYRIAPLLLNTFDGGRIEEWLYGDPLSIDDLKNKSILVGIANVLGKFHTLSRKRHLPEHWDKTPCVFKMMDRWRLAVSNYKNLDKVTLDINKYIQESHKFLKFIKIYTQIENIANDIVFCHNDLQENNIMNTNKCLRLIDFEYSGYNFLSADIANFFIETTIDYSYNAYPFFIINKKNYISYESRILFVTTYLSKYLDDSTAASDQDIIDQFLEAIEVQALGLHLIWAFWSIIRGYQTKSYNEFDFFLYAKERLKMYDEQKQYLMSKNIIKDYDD

Consider `[Br-].c1ccc(-c2ccc(C[n+]3cnc(N4CCCC4)c4ccsc43)cc2)cc1` [Fa-M3, 1-([1,1’-biphenyl]-4-ylmethyl)-4-(pyrrolidin-1-yl)thieno[2,3-d]pyrimidin-1-ium bromide], for which the melting point lay within 275 to 278 °C. Further, the remaining activity at 25 µM in data set [1] turned out to be 96.9 ± 18.7%. In addition, the IC50 in data set [2] was 35.1 nM. Moreover, the aggregation result in data set [3] is reported as “severe aggregation”.
Consider `[Br-].c1ccc(-c2ccc(C[n+]3cnc(N4CCCC4)c4sccc43)cc2)cc1` [Fa-M1, 1-([1,1’-biphenyl]-4-ylmethyl)-4-(pyrrolidin-1-yl)thieno[3,2-d]pyrimidin-1-ium bromide], for which the melting point is 295 to 298 °C. In addition, the remaining activity at 25 µM in data set [1] is 54.6 ± 11.7%. The IC50 in data set [2] is 41 nM. Besides, the aggregation result in data set [3] is reported as “severe aggregation”.
For the compound `CN(C)c1cc[n+](Cc2ccc(CCCCc3ccc(C[n+]4ccc(N5CCCC5)cc4)cc3)cc2)cc1` [BR-25], the values for the IC50 in data set [4] and in data set [5] (read-out: IC50 PfCK b (compound concentration required to inhibit PfCK enzyme by 50%)) were 2 ± 0.3 nM and 103000 nM, respectively. Moreover, the “inhibition of PfCK depending on substrate (in words)” value in data set [5] is given as “only had inhibitory activity when the enzyme-substrate was ethanolamine”.
Regarding `[Br-].c1ccc(-c2ccc(C[n+]3ccc(N4CCCC4)c4sccc43)cc2)cc1` [Fa-M2, 4-([1,1’-biphenyl]-4-ylmethyl)-7-(pyrrolidin-1-yl)thieno[3,2-b]pyridin-4-ium bromide], the melting point was in the range of 271 to 273 °C. Also, the remaining activity at 25 µM in data set [1] came to 101 ± 13.7%. The IC50 in data set [2] is 48.9 nM. In data set [3], the aggregation entry was “severe aggregation”.
`CN(C)c1cc[n+](Cc2ccc(OCCOc3ccc(C[n+]4ccc(N(C)C)cc4)cc3)cc2)cc1` [10a]: the IC50 in data set [4] was 16 ± 1 nM. Also, in data set [5], the “inhibition of PfCK depending on substrate (in words)” value was “no inhibition of the enzyme in its choline kinase or ethanolamine kinase activity is observed”.
